{"source": "patent US7183112B2", "about": "“Uses for anti-malarial therapeutic agents” (APT Pharmaceuticals, LLC, priority 1999, dated 2007)", "origin": "cited, not measured here", "key": {"allergic asthma": {"tested_on": "allergic asthma", "details": "Fahy et al. 1999, cited from earlier work"}, "[1]": {"details": "cited from earlier work"}}, "note": "Counter-ions that a name gives are not always drawn. Like-named read-outs stand apart in the source and are kept apart here."}
{"compound": "Anti IgE(E25): Anti IgE(E25), given intravenously or by inhalation for allergic asthma (Fahy et al.)", "values": [{"measurement": "efficacy for treating allergic asthma", "setting": "allergic asthma; inhalation", "value": "virtually ineffective"}, {"measurement": "efficacy for treating allergic asthma", "setting": "allergic asthma; intravenous administration", "value": "effective"}]}
{"compound": "CCN(CCO)CCCC(C)Nc1ccnc2cc(Cl)ccc12", "note": "(stereo not drawn) [hydroxychloroquine sulfate]", "values": [{"measurement": "solubility in water", "setting": "[1]", "value": "readily soluble"}]}
